Measurements: US6040149A, “Assay for identifying agents which act on the ceramide-activated protein kinase, kinase suppressor of ras, and methods of using said agents” (priority 1997, dated 2000)

What was measured:
sphingomyelin pathway = assay: Sphingomyelin, ceramide and CAP kinase activity in EL-4 cell-free system; assay type: biochemical, murine (EL-4 cells); conditions: IL-1β 10 ng ml^-1
Description: IL-1β effects on sphingomyelin and ceramide levels (A) and ceramide-activated protein kinase activity (B) in a cell-free system. […] Thereafter, supernates (300 μg incubation^-1 in 25 μl) were added to a reaction mixture (total volume 250 μl) as described in FIG. 14. For studies measuring lipid levels, incubations were stopped by extraction of lipids into an organic phase and resolved as described in FIGS. 12 and 13. For studies measuring kinase activity, incubations contained EGFR peptide and [^32 P]ATP, and phosphorylated peptide was quantified as described in FIG. 14. Background activity was subtracted from each point. Values (mean) represent data from two experiments for sphingomyelin performed in triplicate, three experiments for ceramide performed in triplicate, and five experiments for ceramide-activated protein kinase activity performed in duplicate.
Early kinetics of activation of a potential signaling system provide some support that the pathway might be involved in the signaling process. However, signal transduction pathways are highly regulated and often interrelated. […] To provide additional support for tight coupling of the sphingomyelin pathway to activation of the IL-1β receptor, studies were performed with subcellular fractions derived from EL-4 cells. For these studies, supernates, collected after a low-speed centrifugation to remove nuclei, were first incubated with IL-1β for 10 minutes at 4° C. to permit formation of IL-1 receptor complexes. Thereafter, reactions were initiated by warming supernates to 22° C. in a reaction mixture containing Mg^2+ at pH 7.4. These conditions were adopted to allow for activation of endogenous neutral sphingomyelinase. For studies measuring kinase activity, reaction mixtures also contained [^32 P] ATP and EGFR peptide. […] In separate studies, a statistically significant reduction in sphingomyelin content (n=10) and elevation in ceramide content (n=6) were detected at 1 minute of stimulation (p<0.005 vs. control). […] These effects were quantitatively similar to those determined in the intact cells.

protein kinase C = assay: Protein kinase C activity in EL-4 cells (lysine-rich histone phosphorylation); assay type: cell-based, murine (EL-4 cells); conditions: membrane or cytosolic fractions
[1] = tested on: ceramide-activated protein kinase; assay: Ceramide-activated protein kinase activity (EGFR peptide) in EL-4 cell fractions
Description: Effect of IL-1β on ceramide-activated protein kinase activity. […] Homogenates were centrifuged at 500×g for 5 minutes to remove nuclei and at 200,000×g for 30 minutes to prepare microsomal membranes. Membranes were resuspended into homogenizing buffer (2.2 μg membrane protein μl^-1). For assay of kinase activity, the reaction mixture contained 20 μl of microsomal membrane, 40 μl EGFR peptide (4 mg ml^-1 in 25 mM Hepes, pH 7.4) and 100 μl buffer (50 mM HEPES, pH 7.4, 20 mM MgCl2). Phosphorylation was initiated at 22° C. by addition of 40 μl [γ-^32 P] ATP (100 μM final concentration) and terminated at the indicated times by addition of 40 μl of 0.5 M ATP in 90% formic acid. Phosphorylated peptide was eluted from a C18 Sep pak cartridge (Millipore), lyophilized, and resolved by C18 reverse phase HPLC using a linear gradient of acetonitrile. […] All assays were performed under conditions determined as linear for time and enzyme concentration. Enzyme activity was determined from the percent conversion of substrate to product and the specific radioactivity of [γ-^32 P] ATP. […] Values (mean±range) represent duplicate determinations from two experiments.
Activity was measured by the transfer of ^32 P from the γ-position of ATP to EGFR peptide (AA 663-681 of the EGFR). The effect of IL-1β on kinase activity was determined using microsomal membranes derived from cells stimulated with IL-1β.

EL-4 cells = assay: Sphingomyelin and ceramide levels in intact EL-4 cells; assay type: cell-based, murine
Description: IL-1β effects on sphingomyelin levels in EL4 cells. Time course (A) and dose response (B). Cells were grown to growth arrest (1-1.5×10^6 cells ml^-1) in DME/Ham's F12 medium (1:1, v/v) containing 10% horse serum and for 48 hours [^3 H]choline (1 μCi ml^-1). On the day of an experiment, cells were resuspended back into the same medium at 10×10^6 cells ml^-1 and stimulated with 40 ng ml^-1 IL-1β for the indicated times (A) or for 30 minutes with increasing concentrations of IL-1β (B). Human IL-1β may be obtained using methods well known to those skilled in the art. Reactions were terminated with CHCl3 :CH3 OH:HCl (100:100:1) containing 10 mM EDTA (82). Lipids in the organic phase extract were dried under N2 and subjected to mild alkaline hydrolysis (0.1 M methanolic KOH for 1 hour at 37° C.) to remove glycerophospholipids. Sphingomyelin was resolved by thin-layer chromatography (TLC) using CHCl3 :CH3 OH:CH3 COOH:H2 O (60:30:8:5) as solvent, identified by iodine vapor staining, and quantified by liquid scintillation spectrometry. As previously reported, the use of [^3 H]choline as a measure of sphingomyelin content was validated by simultaneous phospholipid phosphorus measurements. Each value represents the mean±SEM of triplicate determinations from four experiments in (A), and one representative of four similar studies performed in triplicate in (B).
Effect of IL-1β on ceramide levels in EL-4 cells. Cells were stimulated as in FIG. 12 with IL-1β (40 ng ml^-1) and ceramide contained within the organic phase extract quantified enzymatically using the E. coli diacylglycerol kinase reaction. Lipids were resolved by TLC using CHCl3 :CH3 OH:CH3 COOH (65/15/5) as solvent, autoradiographed and quantified by liquid scintillation spectrometry. Each value represents the mean±SEM of triplicate determinations from 10 experiments.
The murine thymoma EL-4 cell line is a well-defined IL-1 responsive cell line that expresses functional IL-1 receptors. Upon stimulation with IL-1, these cells up-regulate the IL-2 receptor and secrete IL-2 [62]. Initial studies were designed to investigate the effects of IL-1β on cellular sphingomyelin content. Cells, grown in Dulbecco's Modified Eagle's (DME)/Ham's F-12 medium containing 10% horse serum and [^3 H]choline (1 μCi ml^-1), were resuspended back into the same medium at 10×10^6 cells ml^-1 and stimulated with IL-1β. IL-1β is commercially available.

YT cells = assay: Ceramide generation in YT cells (preliminary); assay type: cell-based, human
[2] = p<0.005 vs. control at 1 minute

IL-1β: Human IL-1β
ceramide-activated protein kinase activity, cell-free (sphingomyelin pathway): increased | ceramide content, cell-free (sphingomyelin pathway; [2]): quantitative increase in ceramide content | sphingomyelin content, cell-free (sphingomyelin pathway; [2]): rapid reduction in sphingomyelin content | protein kinase C activity (protein kinase C): not enhanced | ED50 (kinase activity) [1]: ≈ 2 ng ml^-1 | concentration of maximal effect (kinase activity) [1]: 10 ng/mL | effective concentration (kinase activity) [1]: 0.03 ng/mL | onset of increase in kinase activity ([1]; IL-1β 10 ng ml^-1): 30 s | time of maximal kinase activity ([1]; IL-1β 10 ng ml^-1): 2 min | kinase activity ([1]; IL-1β 10 ng ml^-1, from 5): 11 pmol/min/mg | kinase activity, fold of control ([1]; IL-1β 10 ng ml^-1, microsomal membranes, p<0.005): 2.1 fold of control | cytosolic kinase activity toward EGFR peptide ([1]; cytosolic fractions): not enhanced | ED50 (sphingomyelin hydrolysis) (EL-4 cells; 30 minutes): ≈ 2 ng ml^-1 | concentration of maximal effect (sphingomyelin hydrolysis) (EL-4 cells; 30 minutes): 10 ng/mL | effective concentration (sphingomyelin hydrolysis) (EL-4 cells; 30 minutes): 0.01 ng/mL | content of phosphatidylcholine (EL-4 cells; IL-1β): unchanged | onset of reduction in sphingomyelin content (EL-4 cells; IL-1β 40 ng ml^-1): ≤ 2 min | ceramide content (EL-4 cells; IL-1β 40 ng ml^-1, 2 minutes, from 360, p<0.005): 403 pmol 10^6 cells^-1 | maximum ceramide content (EL-4 cells; IL-1β 40 ng ml^-1, 15 minutes, from 360): 450 pmol 10^6 cells^-1 | sphingomyelin content (EL-4 cells; IL-1β 40 ng ml^-1, 30 minutes, baseline 800±14, mean±SEM, p<0.005): 648±16 pmol 10^6 cells^-1 | onset of ceramide increase (EL-4 cells; separate studies (n=4)): ≤ 30 s | ceramide generation (YT cells): rapid generation of ceramide | IL-2 secretion in combination with TPA (EL4 cells; 24 h): stimulated secretion maximally | IL-2 secretion, +TPA (EL4 cells; with TPA 20 ng ml^-1, 24 h, nd = not detectable, mean ± range): 261 ± 2
